Data on 14 compounds can be found in PubChem BioAssay (NCI).

SMILES strings stand for the structures.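 Five concentrations, 48 hours, 96-well plates. TGI marks complete inhibition of growth.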

Holding throughout (assay): inhibition of tumour cell growth, NCI panel, 48 h
The subject of assay [1] is A498 renal.
The test system of assay [2] is A549 NSCLC.
In assay [3] the test system is CAKI-1 renal.
Assay [4] has as its system CCRF-CEM leukemia.
The subject of assay [5] is HOP-92 NSCLC.
In assay [6] the test system is K-562 leukemia.
Assay [7] has as its system LOX IMVI melanoma.
Assay [8] deals with SNB-19 CNS.

`CC1C(c2ccccc2)N(C)C(c2ccccc2)C(C)C1(O)c1ccccc1` (stereo unspecified): the TGI in assay [1], in assay [2], in assay [3], in assay [4], in assay [5] and in assay [6] was greater than 100 µM each time. The TGI in assay [7] and in assay [8] was greater than 100 µM in each case.
`C/C(=N\N=C(N)N)C(CN1CCOCC1)C(c1ccccc1)c1c(O)c2ccccc2oc1=O` (stereo unspecified): the TGI in assay [2] is greater than 100 µM; in assay [3] it was greater than 100 µM; in assay [4], greater than 100 µM; in assay [5], 96.9 µM; in assay [6], greater than 100 µM; in assay [7], greater than 100 µM. This compound also yielded a TGI in assay [8] greater than 100 µM.
Turning to `COc1cc(/C=C2\[C@@H]3NC(Cc4c(OC)c(C)c(OC)c(OC)c43)C(=O)N2Cc2ccccc2)c(OC)c(C)c1OC`, the TGI in assay [1] is greater than 100 µM; in assay [2] it was greater than 100 µM; in assay [3], 89 µM; in assay [4], greater than 100 µM; in assay [5], 69.1 µM; in assay [6], greater than 100 µM. The TGI in assay [7] and in assay [8] was greater than 100 µM in each case.
Regarding `O=C(CC12C3C4C1C1C2C3C41CC(=O)NO)NO` (stereo unspecified), the TGI in assay [1] is 76.1 µM; in assay [2] it was greater than 100 µM; in assay [3], greater than 100 µM; in assay [4] it was 80.1 µM; in assay [5], 97 µM; in assay [6], 87.1 µM. For the same compound, the TGI in assay [7] is 74.5 µM; in assay [8], greater than 100 µM.
As to `OC1OCC(COc2cc(Cl)c(Cl)cc2Cl)OC1O` (stereo unspecified), the TGI is greater than 100 µM in assay [1]; greater than 100 µM in assay [2]; greater than 100 µM in assay [3]; 89.6 µM in assay [4]; 94.3 µM in assay [5]; greater than 100 µM in assay [6]. Also, the TGI in assay [8] is greater than 100 µM.
For the compound `CC1(C)CC(=O)C(CC2C(=O)CCCC2=O)C(=O)C1`, the TGI in assay [1], in assay [2], in assay [3], in assay [4], in assay [6] and in assay [7] was greater than 100 µM each time. The compound further yielded a TGI in assay [8] greater than 100 µM.
For the compound `CSc1ccc(N2C(=O)C3c4[nH]c5ccccc5c4C4CCC(C(C)(C)C)CC4C3C2=O)cc1` (stereo unspecified), the TGI in assay [1] came out at 33.7 µM; in assay [2], 33.5 µM; in assay [3] it was 42.9 µM; in assay [4], 23.5 µM; in assay [5] it was 27.1 µM; in assay [6] it was 34.5 µM. The TGI in assay [7] is 31.8 µM; in assay [8] it was 45.2 µM.
In the case of `CC1(c2ccc(F)cc2)C2C(=O)NC(=O)C1C(=O)NC2=O` (stereo unspecified), the TGI in assay [1], in assay [2], in assay [3], in assay [4], in assay [5] and in assay [6] was greater than 100 µM in each case. Also, the TGI in assay [7] and in assay [8] was greater than 100 µM throughout.
For `O=C1c2ccccc2C(=O)N1CC#CCO`, the TGI in assay [1], in assay [2], in assay [3], in assay [4], in assay [6] and in assay [8] was greater than 100 µM in each case.
Turning to `CCO/C=C\C12CCCC1NC(c1ccccc1)(c1ccccc1)O2` (stereo unspecified), the TGI in assay [1] was greater than 100 µM; in assay [2], greater than 100 µM; in assay [3], 65.6 µM; in assay [4], 51 µM; in assay [5], 52.3 µM; in assay [6], 56.7 µM. This compound also yielded a TGI in assay [8] greater than 100 µM.
Regarding `CCCCCCCCCCCCCCNCC(OC)OC`, the TGI in assay [1] worked out at 35 µM; in assay [2], 35.3 µM; in assay [4] it was 36.4 µM; in assay [5], 23.9 µM; in assay [7], 33.5 µM; in assay [8], 33.8 µM.
As to `C=CC1=C(C)C(/C=c2\[nH]/c(=C/c3[nH]c(CC4NC(=O)C(C)/C4=C\C)c(C)c3CCC(=O)O)c(CC(=O)O)c2C)=NC1=O` (stereo unspecified), the TGI in assay [2], in assay [3], in assay [4], in assay [5], in assay [6] and in assay [7] was greater than 100 µM each time. The compound also had a TGI in assay [8] greater than 100 µM.
With `CCC(O)CCCCCCCCCCCCCCC(=O)O` (stereo unspecified), the TGI in assay [1], in assay [2], in assay [3], in assay [4], in assay [5] and in assay [6] was greater than 100 µM each time. The compound further came in with a TGI in assay [8] greater than 100 µM.
On to `CCCCCCCCCC1CC(=O)OC2=C1C(=O)CCC2` (stereo unspecified), for which the TGI in assay [2], in assay [3], in assay [4], in assay [5], in assay [6] and in assay [7] was greater than 100 µM each time. The compound also registered a TGI in assay [8] greater than 100 µM.
